Reference: PMC12598616, “Design and optimization of caspase-1-responsive fluorescent probes for pyroptosis imaging and anti-pyroptosis drug screening” (Chemical Science, 2025)

System: Cas-1 in THP-1 cells
Assay: Imaging and flow cytometry in Cas-1 siRNA knockdown THP-1 cells
Format: cell-based
Settings: caspase-1 siRNA, LPS 1 μg/mL and Nig 10 μM
Method: Cytotoxicity assay (CCK-8)
The cytotoxicity of FPy1 and YPy1 to THP-1 was evaluated by cell counting kit-8 (CCK-8). Briefly, the THP-1 cells were seeded in 96-well plates (5000 cells/well) and cultured at 37 °C for 24 hours. Various concentrations of FPy1 or YPy1 (0, 2.5, 5, 10, 20, 30, 40, 50 μM) in RPMI 1640 medium were added, and the cells were kept incubation for 12 hours. Then, the cells were washed with PBS and incubated in the 100 μL fresh medium with 10 μL CCK8 dye for an additional 2 hours. The absorbance was measured at 450 nm using a Tecan Infinite M1000 Multi-function microplate reader, and cell viability was calculated using the formula:
Cell viability (%) = [(OD test-ODblank)/(ODcontrol-ODblank)] ×100%
Intracellular imaging with FPy1 in THP-1 cells
THP-1 cells were seeded in dishes and cultured overnight. […] The fluorescence imaging was performed under the excitation at 514 nm with signal collection in the range […]
for 4 hours, the cells were further treated with Nig (10 μM) for 2 hours. […] The distribution of FPy1 was analyzed by collecting organelle-specific dye fluorescence at 495-525 nm with 488 nm excitation, while simultaneously detecting FPy1 fluorescence at 530-610 nm with 514 nm excitation. […]
Nucleus pulposus cells were isolated from discs and resuspended in 1mL DMEM/F12 medium containing 10 μM ITS-A. A total of […] were counted and transferred into centrifuge tubes. […]

–FLTDG– [FPy1, RhoB donor, hNR quencher]
fluorescence intensity in Si-Casp1 group (flow cytometry): lower than that in the Si-Scramble group | intracellular fluorescence intensity in Si-Casp1 group (confocal) (FPy1 5 μM): significantly lower than that in the Si-Scramble group
